The results in this text go back to PubChem BioAssay (NCI).

Some test systems named below: A549 NSCLC; HCT-15 colon; IGROV1 ovarian; NCI-H23 lung; OVCAR-3 ovarian; SK-MEL-28 melanoma; SK-OV-3 ovarian; UACC-62 melanoma; UO-31 renal.
What all share (assay): growth of human tumour cells (NCI), 48 h

Structures are written as SMILES.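 The compound was tested at five concentrations on cells cultured in 96-well plates, with a 48-hour exposure period. At the GI50, growth is halved. TGI is the concentration that stops growth completely.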

With `Cn1c(=O)c(C(c2ccc([N+](=O)[O-])cc2)c2c(O)c3ccccc3n(C)c2=O)cc2ccccc21` (stereo not drawn), the TGI with A549 NSCLC, with HCT-15 colon, in the assay with IGROV1 ovarian, with NCI-H23 lung, with OVCAR-3 ovarian and with SK-MEL-28 melanoma was more than 100 µM each time. Also, the results for the TGI in the assay with SK-OV-3 ovarian, in the assay with UACC-62 melanoma and with UO-31 renal were more than 100 µM, 42.3 µM and more than 100 µM, respectively.
`C1=CC2SSSC2C1` (stereo not drawn): the TGI in the assay with A549 NSCLC, in the assay with HCT-15 colon, in the assay with IGROV1 ovarian, in the assay on NCI-H23 lung, with OVCAR-3 ovarian and with SK-MEL-28 melanoma was more than 100 µM in each case. Also, the TGI in the assay on SK-OV-3 ovarian, in the assay on UACC-62 melanoma and in the assay on UO-31 renal was more than 100 µM throughout.
With `COc1ccccc1CCc1cc(OC)c(OC)c(OC)c1`, the TGI with A549 NSCLC, in the assay on HCT-15 colon, in the assay with IGROV1 ovarian, in the assay on OVCAR-3 ovarian, with SK-MEL-28 melanoma and with UACC-62 melanoma was more than 100 µM throughout. This molecule also displayed a TGI in the assay with UO-31 renal of 61.3 µM.
In the case of `Clc1nc(Cl)c(Cl)c(-c2ccccc2)n1`, the TGI is 27.9 µM in the assay on A549 NSCLC; more than 100 µM with HCT-15 colon; 31.1 µM with IGROV1 ovarian; 35 µM in the assay with NCI-H23 lung; 5.38 µM in the assay on OVCAR-3 ovarian; 32.8 µM in the assay with SK-MEL-28 melanoma. The TGI with SK-OV-3 ovarian came out at 25.8 µM; with UO-31 renal, 34.7 µM.
`CCOc1ccccc1N=Nc1ccc2oc(=O)c(C(=O)Nc3cccc(C)c3)cc2c1`: the TGI with A549 NSCLC is more than 100 µM; in the assay with HCT-15 colon, more than 100 µM; in the assay on IGROV1 ovarian it was more than 100 µM; in the assay on NCI-H23 lung, 94.7 µM; in the assay on OVCAR-3 ovarian, 62.4 µM; in the assay with SK-MEL-28 melanoma, 72.3 µM. The TGI in the assay on SK-OV-3 ovarian, in the assay with UACC-62 melanoma and with UO-31 renal was more than 100 µM in each case.
Turning to `O=C1OC(c2ccccc2)=N/C1=C\c1cccc2ccccc12`, the TGI in the assay with A549 NSCLC, with HCT-15 colon, with IGROV1 ovarian, with NCI-H23 lung, with OVCAR-3 ovarian and in the assay with SK-MEL-28 melanoma was more than 100 µM in each case. Moreover, the TGI in the assay on SK-OV-3 ovarian, in the assay with UACC-62 melanoma and in the assay on UO-31 renal was more than 100 µM throughout.
Take `COc1ccc(C(=O)C(C(=O)CCC(=O)Nc2cccc(Cl)c2)c2ccc(OC)cc2)cc1` (stereo not drawn): the TGI in the assay with A549 NSCLC, with HCT-15 colon, in the assay with IGROV1 ovarian, in the assay on NCI-H23 lung, in the assay on OVCAR-3 ovarian and with SK-MEL-28 melanoma was more than 100 µM each time. The TGI in the assay with SK-OV-3 ovarian, with UACC-62 melanoma and in the assay on UO-31 renal was more than 100 µM each time.
Take `O=C1C2C3C=C4c5ccccc5N(c5ccccc5)C4(C2C(=O)N1Cc1ccccc1)C1C(=O)N(Cc2ccccc2)C(=O)C31` (stereo not drawn): the TGI in the assay with A549 NSCLC, with HCT-15 colon, in the assay on NCI-H23 lung, in the assay with SK-MEL-28 melanoma and with UO-31 renal was more than 100 µM each time.
In the case of `Cc1cc(Cl)ccc1N=C1NC(=O)C(CC(=O)Nc2ccc([N+](=O)[O-])cc2[N+](=O)[O-])S1` (stereo not drawn), the TGI is 85.9 µM with A549 NSCLC; more than 100 µM with HCT-15 colon; more than 100 µM in the assay with IGROV1 ovarian; 51.8 µM in the assay on NCI-H23 lung; 73.8 µM with OVCAR-3 ovarian; more than 100 µM with SK-MEL-28 melanoma. For the same molecule, the TGI with SK-OV-3 ovarian was found to be 55 µM; with UACC-62 melanoma it was 64.7 µM; in the assay with UO-31 renal, 42.6 µM.
`Cc1nc(N)sc1C(=O)/C=C\c1ccc2c(c1)OCO2`: the TGI with A549 NSCLC, with HCT-15 colon, with IGROV1 ovarian, with NCI-H23 lung, in the assay with OVCAR-3 ovarian and in the assay on SK-MEL-28 melanoma was more than 100 µM each time. Further, the TGI with SK-OV-3 ovarian, with UACC-62 melanoma and in the assay on UO-31 renal was more than 100 µM each time.
In the case of `CCOC(=O)C1=C(C)N(NC(=O)Nc2ccccc2)C(=O)C1=P(c1ccccc1)(c1ccccc1)c1ccccc1`, the TGI in the assay with A549 NSCLC, in the assay on HCT-15 colon, in the assay on IGROV1 ovarian, in the assay with NCI-H23 lung, in the assay on OVCAR-3 ovarian and in the assay with SK-OV-3 ovarian was more than 100 µM in each case. In addition, the TGI with UACC-62 melanoma is 89.9 µM; in the assay with UO-31 renal, more than 100 µM.
Take `Cc1cccc(NC(=O)/C(=N\NC(C)(C)C)C2NC(=S)NC2=O)c1C` (stereo not drawn): the TGI in the assay on A549 NSCLC, in the assay on HCT-15 colon, in the assay with IGROV1 ovarian, with OVCAR-3 ovarian, in the assay with SK-OV-3 ovarian and with UACC-62 melanoma was more than 100 µM in each case. For the same molecule, the TGI in the assay on UO-31 renal is more than 100 µM.
On to `NCCCCN(CCCN)/[N+]([O-])=N\O`, for which the TGI in the assay with A549 NSCLC, in the assay with HCT-15 colon, with IGROV1 ovarian, with NCI-H23 lung, in the assay with OVCAR-3 ovarian and in the assay on SK-MEL-28 melanoma was more than 100 µM each time. The TGI in the assay with SK-OV-3 ovarian, with UACC-62 melanoma and in the assay on UO-31 renal was more than 100 µM in each case.
Take `COC(=O)C1=C(C)N(NC(=O)OC(C)(C)C)C(=O)C1=P(c1ccccc1)(c1ccccc1)c1ccccc1`: the TGI in the assay on A549 NSCLC, in the assay on HCT-15 colon, in the assay with IGROV1 ovarian, in the assay with NCI-H23 lung, in the assay with OVCAR-3 ovarian and with SK-OV-3 ovarian was more than 100 µM in each case. Further, the TGI in the assay with UACC-62 melanoma and in the assay on UO-31 renal was more than 100 µM in each case.
As to `CCC[CH2][Sn]1([CH2]CCC)[O]CC(CN2CCCC2)[O]1` (stereo not drawn), the GI50 in the assay on A549 NSCLC was 47.2 µM; with HCT-15 colon it was 15.3 µM; in the assay on IGROV1 ovarian, 21.1 µM; in the assay with NCI-H23 lung, 11.6 µM; in the assay with OVCAR-3 ovarian, 13 µM; with SK-MEL-28 melanoma it was 19 µM. Moreover, the GI50 in the assay on SK-OV-3 ovarian is 37 µM; in the assay on UACC-62 melanoma, 13.6 µM; with UO-31 renal it was 17 µM. For the same molecule, the TGI with A549 NSCLC was more than 100 µM; in the assay with HCT-15 colon, 29.2 µM; in the assay with IGROV1 ovarian it was 37.1 µM; with NCI-H23 lung, 27.7 µM; in the assay with OVCAR-3 ovarian it was 25.7 µM; in the assay with SK-MEL-28 melanoma, 34.9 µM. For the same molecule, the TGI in the assay on SK-OV-3 ovarian is more than 100 µM; in the assay on UACC-62 melanoma, 30.5 µM; in the assay on UO-31 renal, 31.3 µM.
